From US20250320206A1, “STAT6 DEGRADERS” (Gilead Sciences, Inc., priority 2024, published 2025)

target: T1, STAT6 (Homo sapiens, UniProt P42226); test: Stat6 Degrader Assay (HiBiT based, HeLa LgBiT clone 4.14); assay type: cell-based; conditions: HeLa LgBiT clone 4.14 HiBiT-STAT6, 4-24 h incubation; values given for compounds with >80% Emax; geometric mean; read-out: STAT6 degradation DC50
T1 construct: These cells express endogenous STAT6; host or cells: HeLa LgBiT clone 4.14
T1 sequence (P42226 1-847): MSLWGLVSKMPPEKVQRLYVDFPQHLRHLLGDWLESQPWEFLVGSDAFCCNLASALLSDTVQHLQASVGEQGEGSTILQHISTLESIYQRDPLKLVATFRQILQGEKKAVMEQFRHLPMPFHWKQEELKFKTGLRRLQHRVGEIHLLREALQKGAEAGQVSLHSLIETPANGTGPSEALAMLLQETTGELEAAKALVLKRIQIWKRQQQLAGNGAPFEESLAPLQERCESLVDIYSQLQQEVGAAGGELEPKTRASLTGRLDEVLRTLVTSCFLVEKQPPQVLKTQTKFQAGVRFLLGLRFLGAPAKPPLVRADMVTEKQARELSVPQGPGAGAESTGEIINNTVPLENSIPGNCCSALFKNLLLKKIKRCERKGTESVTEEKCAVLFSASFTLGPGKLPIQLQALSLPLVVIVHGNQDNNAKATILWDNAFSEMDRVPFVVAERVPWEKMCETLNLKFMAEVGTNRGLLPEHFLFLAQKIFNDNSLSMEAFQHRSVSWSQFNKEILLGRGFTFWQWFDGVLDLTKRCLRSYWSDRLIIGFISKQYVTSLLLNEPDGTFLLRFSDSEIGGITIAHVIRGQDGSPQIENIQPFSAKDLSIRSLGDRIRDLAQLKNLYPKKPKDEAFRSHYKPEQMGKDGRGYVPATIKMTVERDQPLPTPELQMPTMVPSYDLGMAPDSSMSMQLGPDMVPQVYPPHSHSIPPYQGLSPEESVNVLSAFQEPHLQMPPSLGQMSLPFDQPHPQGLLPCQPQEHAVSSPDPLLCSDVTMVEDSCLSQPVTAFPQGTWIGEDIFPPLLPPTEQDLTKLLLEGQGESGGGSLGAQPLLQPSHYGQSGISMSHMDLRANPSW
Protocol: This was a HiBit based assay. A HeLa cell line stably transfected with a small protein, LgBit (Large Bit) was obtained from Promega. These cells express endogenous STAT6. A small 11 amino acid gene sequence (HiBiT) was inserted in the STAT6 gene using CRISPR technology. Once STAT6 protein is expressed in the cells, the HiBiT sequence will bind the LgBit in the cells resulting in a functional NanoBiT protein, giving a luminescent tag to STAT6, see FIG. 2.
Single cell clones were prepared and the clone 4.14 was selected for the assay based on that clone showing high luminescence, high STAT6 phosphorylation upon stimulation with IL-4, and inhibition of luminescence when cells were treated with STAT6 siRNA.
HeLa LgBiT clone 4.14 cells were suspended in DMEM with 10% FCS, 1% Pen/Strep, Na-pyrovate and Hygromycin B, at a concentration of 1.25*105 cells pr mL. 5000 cells were added pr well of a 384 well plate and 20 nL of compound was added by Echo® liquid handler. NN6394A (terfenadine, a toxic compound) was added to control wells at 50 μM concentration to establish the assay window. In these wells the cells are dead which equals 100% degradation of STAT6.
After 4-24 h of incubation at 37° C. under 5% CO2/95% air, 5 μL substrate (Nano-GLO®) was added to the wells and the plates were centrifuged and incubated for 0.5 h.
The luminescence in the wells as a measure of non-degraded STAT6 was measured in a plate reader (BMG Pherastar FSX).
The dose-response curves for Examples 3u208, 3u246, 3u118, 3u119, 3u120, and 3u74 are shown in FIG. 1 (where percent degradation is plotted vs. test compound concentration in M on a log-scale).

Row | SMILES | DC50
1 | CNc1c(F)cn(-c2ccnc3c2cc([C@H](C)N2CC=C(c4c(C)cc(C(=O)N5CCC(CN6CCN(Cc7ccc8c(c7)C7(CC7)C(=O)N8C7CCC(=O)NC7=O)C[C@@H]6C)CC5)cc4F)CC2)n3C)c(=O)c1F (stereo partly drawn) [Example 3u4, 3-(5′-(((S)-4-((1-(4-(1-((S)-1-(4-(3,5-difluoro-4-(methylamino)-2-oxopyridin-1 (2H)-yl)-1-methyl-1H-pyrrolo[2,3-b]pyridin-2-yl)ethyl)-1,2,3,6-tetrahydropyridin-4-yl)-3-fluoro-5-methyl-benzoyl)-piperidin-4-yl)methyl)-3-methylpiperazin-1-yl)methyl)-2′-oxospiro[cyclopropane-1,3′-indolin]-1′-yl)piperidine-2,6-dione] | 4 nM
2 | CNc1ccn(-c2ccnc3c2cc([C@H](C)N2CC=C(c4c(C)cc(C(=O)N5CCC(CN6CCN(Cc7cc8c(cc7F)n(C7CCC(=O)NC7=O)c(=O)n8C)CC6)CC5)cc4F)CC2)n3C)c(=O)c1 (stereo partly drawn) [Example 3u10, 3-(6-fluoro-5-((4-((1-(3-fluoro-5-methyl-4-(1-((S)-1-(1-methyl-4-(4-(methylamino)-2-oxopyridin-1 (2H)-yl)-1H-pyrrolo[2,3-b]pyridin-2-yl)ethyl)-1,2,3,6-tetrahydropyridin-4-yl)benzoyl)-piperidin-4-yl)methyl)piperazin-1-yl)methyl)-3-methyl-2-oxo-2,3-dihydro-1H-benzo[d]imidazol-1-yl)piperidine-2,6-dione] | 0.6 nM
3 | Cc1cc(C(=O)N2CCC(CN3CCN(Cc4ccc5c(c4)n(C)c(=O)n5C4CCC(=O)NC4=O)C[C@@H]3C)CC2)cc(F)c1C1=CCN(Cc2cc3c(-n4ccc5c(c4=O)CCN5)ccnc3n2C)CC1 (stereo partly drawn) [Example 3u23, 3-(5-(((S)-4-((1-(3-fluoro-5-methyl-4-(1-((1-methyl-4-(4-oxo-1,2,3,4-tetrahydro-5H-pyrrolo[3,2-c]pyridin-5-yl)-1H-pyrrolo[2,3-b]pyridin-2-yl)methyl)-1,2,3,6-tetrahydropyridin-4-yl)benzoyl)piperidin-4-yl)methyl)-3-methylpiperazin-1-yl)methyl)-3-methyl-2-oxo-2,3-dihydro-1H-benzo[d]imidazol-1-yl)piperidine-2,6-dione] | 1.3 nM
4 | CNc1ccn(-c2ccnc3c2cc([C@H](C)N2CC=C(c4c(C)cc(C(=O)N5CCC(CN6CCN(Cc7ccc8c(c7)C7(CCCC7)C(=O)N8C7CCC(=O)NC7=O)CC6)CC5)cc4F)CC2)n3C)c(=O)c1 (stereo partly drawn) [Example 3u110, 3-(5′-((4-((1-(3-fluoro-5-methyl-4-(1-((S)-1-(1-methyl-4-(4-(methylamino)-2-oxopyridin-1 (2H)-yl)-1H-pyrrolo[2,3-b]pyridin-2-yl)ethyl)-1,2,3,6-tetrahydropyridin-4-yl)benzoyl)piperidin-4-yl)methyl)piperazin-1-yl)methyl)-2′-oxospiro[cyclopentane-1,3′-indolin]-1′-yl)piperidine-2,6-dione] | 2.5 nM
5 | Cc1cc(C(=O)N2CCC(CN3CCN(Cc4cc5c(cc4F)n(C4CCC(=O)NC4=O)c(=O)n5C4CC4)C[C@@H]3C)CC2)cc(F)c1C1=CCN([C@@H](C)c2cc3c(-n4ccc5c(c4=O)CCN5)ccnc3n2C)CC1 (stereo partly drawn) [Example 3u131, 3-(3-cyclopropyl-6-fluoro-5-(((S)-4-((1-(3-fluoro-5-methyl-4-(1-((S)-1-(1-methyl-4-(4-oxo-1,2,3,4-tetrahydro-5H-pyrrolo[3,2-c]pyridin-5-yl)-1H-pyrrolo[2,3-b]pyridin-2-yl)ethyl)-1,2,3,6-tetrahydropyridin-4-yl)benzoyl)piperidin-4-yl)methyl)-3-methylpiperazin-1-yl)methyl)-2-oxo-2,3-dihydro-1H-benzo[d]imidazol-1-yl)piperidine-2,6-dione] | 0.8 nM

The next lines start with the values.

Row | DC50 | SMILES
6 | 0.1 nM | CNc1cc(=O)n(-c2ccnc3c2cc([C@H](C)N2CC=C(c4c(C)cc(C(=O)N(C)c5ccc(C6CCN(Cc7ccc8c(c7)C(C)(C)C(=O)N8[C@H]7CCC(=O)NC7=O)CC6)cc5)cc4F)CC2)n3C)cc1F (single isomer, unassigned) [Example 3u234]
7 | 0.4 nM | CNc1cc(=O)n(-c2ccnc3c2cc([C@H](C)N2CC=C(c4c(C)cc(C(=O)N5CCC(F)(CC6CCN(c7ccc8c(c7)C7(CC7)C(=O)N8C7CCC(=O)NC7=O)CC6)CC5)cc4F)CC2)n3C)cc1F (stereo partly drawn) [Example 3u21, 3-(5′-(4-((4-fluoro-1-(3-fluoro-4-(1-((S)-1-(4-(5-fluoro-4-(methylamino)-2-oxopyridin-1 (2H)-yl)-1-methyl-1H-pyrrolo[2,3-b]pyridin-2-yl)ethyl)-1,2,3,6-tetrahydropyridin-4-yl)-5-methylbenzoyl)piperidin-4-yl)methyl)piperidin-1-yl)-2′-oxospiro[cyclopropane-1,3′-indolin]-1′-yl)-piperidine-2,6-dione]
8 | 5.8 nM | CNc1cc(=O)n(-c2ccnc3c2cc([C@H](C)N2CC=C(c4c(C)cc(C(=O)N5CCC(CC6(O)CCN(c7ccc8c(c7)C7(CC7)C(=O)N8C7CCC(=O)NC7=O)CC6)CC5)cc4F)CC2)n3C)cc1F (stereo partly drawn) [Example 3u70, 3-(5′-(4-((1-(3-fluoro-4-(1-((S)-1-(4-(5-fluoro-4-(methylamino)-2-oxopyridin-1 (2H)-yl)-1-methyl-1H-pyrrolo[2,3-b]pyridin-2-yl)ethyl)-1,2,3,6-tetrahydropyridin-4-yl)-5-methylbenzoyl)-piperidin-4-yl)methyl)-4-hydroxypiperidin-1-yl)-2′-oxospiro[cyclopropane-1,3′-indolin]-1′-yl)-piperidine-2,6-dione]
9 | 26 nM | CNc1ccn(-c2ccnc3c2cc(CN2CCC(c4c(F)cc(C(=O)N5CCC(CN6CCN(Cc7ccc8c(c7)C7(CC7)C(=O)N8C7CCC(=O)NC7=O)C[C@@H]6C)CC5)cc4F)CC2)n3C)c(=O)c1F (stereo partly drawn) [Example 3u84, 3-(5′-(((S)-4-((1-(3,5-difluoro-4-(1-((4-(3-fluoro-4-(methylamino)-2-oxopyridin-1 (2H)-yl)-1-methyl-1H-pyrrolo[2,3-b]pyridin-2-yl)methyl)piperidin-4-yl)benzoyl)piperidin-4-yl)methyl)-3-methylpiperazin-1-yl)methyl)-2′-oxospiro[cyclopropane-1,3′-indolin]-1′-yl)piperidine-2,6-dione]
10 | 2.5 nM | CNc1ccn(-c2ccnc3c2cc([C@H](C)N2CC=C(c4c(C)cc(C(=O)N5CCC(CN6CCN(Cc7cc8c(cc7F)n(C7CCC(=O)NC7=O)c(=O)n8C7CC7)CC6)CC5)cc4F)CC2)n3C)c(=O)c1 (stereo partly drawn) [Example 3u103, 3-(3-cyclopropyl-6-fluoro-5-((4-((1-(3-fluoro-5-methyl-4-(1-((S)-1-(1-methyl-4-(4-(methylamino)-2-oxopyridin-1 (2H)-yl)-1H-pyrrolo[2,3-b]pyridin-2-yl)ethyl)-1,2,3,6-tetrahydropyridin-4-yl)benzoyl)piperidin-4-yl)methyl)piperazin-1-yl)methyl)-2-oxo-2,3-dihydro-1H-benzo[d]imidazol-1-yl)piperidine-2,6-dione]
11 | 9.9 nM | CNc1ccn(-c2ccnc3c2cc([C@H](C)N2CC=C(c4c(C)cc(C(=O)N5CCC(CN6CCN(Cc7ccc8c(c7)C7(CC7)C(=O)N8C7CCC(=O)NC7=O)C[C@@H]6C)CC5)cc4F)CC2)n3C)c(=O)c1F (stereo partly drawn) [Example 3u114, 3-(5′-(((S)-4-((1-(3-fluoro-4-(1-((S)-1-(4-(3-fluoro-4-(methylamino)-2-oxopyridin-1 (2H)-yl)-1-methyl-1H-pyrrolo[2,3-b]pyridin-2-yl)ethyl)-1,2,3,6-tetrahydropyridin-4-yl)-5-methyl-benzoyl)piperidin-4-yl)methyl)-3-methylpiperazin-1-yl)methyl)-2′-oxospiro[cyclopropane-1,3′-indolin]-1′-yl)piperidine-2,6-dione]
